Measurements as given in article PMC5218480 (PLoS ONE, 2017).

System: MV-4-11 cells
Test: Gene expression microarray analysis (Affymetrix PrimeView) and GSEA
Assay type: cell-based, human
Parameters: RFU PODN (11730768_x_at) / Fold change /veh PODN (11730768_x_at) / RFU LINC00158 (11744669_a_at) / Fold change /veh LINC00158 (11744669_a_at) / RFU DUSP10 (11751237_a_at) / Fold change /veh DUSP10 (11751237_a_at) / RFU ID3 (11757404_x_at) / Fold change /veh ID3 (11757404_x_at) / RFU PLEKHG5 (11737974_s_at) / Fold change /veh PLEKHG5 (11737974_s_at) / RFU LRRC4B (11730491_at) / Fold change /veh LRRC4B (11730491_at) / RFU GIMAP4 (11747438_a_at) / Fold change /veh GIMAP4 (11747438_a_at) / RFU KRT8 (11758183_x_at) / Fold change /veh KRT8 (11758183_x_at) / RFU CNN1 (11734310_a_at) / Fold change /veh CNN1 (11734310_a_at) / RFU VPS37D (11726825_at) / Fold change /veh VPS37D (11726825_at) / RFU C10orf10 (11716522_x_at) / Fold change /veh C10orf10 (11716522_x_at) / RFU KIR2DL2 /// KIR2DL4 /// KIR2DL5A /// KIR2DL5B /// KIR2DS1 /// KIR2DS2 /// KIR2DS3 /// KIR2DS4 /// KIR3DL3 /// KIR3DL3 /// KIR3DS1 (11738374_at) / Fold change /veh KIR2DL2 /// KIR2DL4 /// KIR2DL5A /// KIR2DL5B /// KIR2DS1 /// KIR2DS2 /// KIR2DS3 /// KIR2DS4 /// KIR3DL3 /// KIR3DL3 /// KIR3DS1 (11738374_at) / RFU C1QL1 (11718748_at) / Fold change /veh C1QL1 (11718748_at) / RFU TMPRSS4 (11747572_a_at) / Fold change /veh TMPRSS4 (11747572_a_at) / RFU HAMP (11756126_x_at) / Fold change /veh HAMP (11756126_x_at) / RFU RNFT2 (11725882_a_at) / Fold change /veh RNFT2 (11725882_a_at) / RFU NR4A2 (11747474_a_at) / Fold change /veh NR4A2 (11747474_a_at) / RFU ABCC12 (11746883_a_at) / Fold change /veh ABCC12 (11746883_a_at) / RFU TMEM136 (11760407_x_at) / Fold change /veh TMEM136 (11760407_x_at) / RFU CLDN22 /// WWC2 (11732394_at) / Fold change /veh CLDN22 /// WWC2 (11732394_at) / RFU HLA-DPB1 (11760878_x_at) / Fold change /veh HLA-DPB1 (11760878_x_at) / RFU SPINT1 (11716480_a_at) / Fold change /veh SPINT1 (11716480_a_at) / RFU GAP43 (11754022_s_at) / Fold change /veh GAP43 (11754022_s_at) / RFU A4GNT (11735810_at) / Fold change /veh A4GNT (11735810_at) / RFU PRB3 (11715151_x_at) / Fold change /veh PRB3 (11715151_x_at) / RFU TUBB4B (11761932_at) / Fold change /veh TUBB4B (11761932_at) / RFU CAPN14 (11732068_a_at) / Fold change /veh CAPN14 (11732068_a_at) / RFU TMCC2 (11721928_a_at) / Fold change /veh TMCC2 (11721928_a_at) / RFU IRGQ (11745062_a_at) / Fold change /veh IRGQ (11745062_a_at) / RFU FAM174B (11720279_a_at) / Fold change /veh FAM174B (11720279_a_at) / RFU TMPRSS4 (11748680_a_at) / Fold change /veh TMPRSS4 (11748680_a_at) / RFU FAM212B (11763350_a_at) / Fold change /veh FAM212B (11763350_a_at) / RFU PLEKHG5 (11743358_a_at) / Fold change /veh PLEKHG5 (11743358_a_at) / RFU ZSCAN30 (11745921_a_at) / Fold change /veh ZSCAN30 (11745921_a_at) / RFU CMKLR1 (11741424_a_at) / Fold change /veh CMKLR1 (11741424_a_at) / RFU LOC101060620 /// MAPK8IP1 (11723275_at) / Fold change /veh LOC101060620 /// MAPK8IP1 (11723275_at) / RFU SPTSSB (11747773_x_at) / Fold change /veh SPTSSB (11747773_x_at) / RFU PRSS12 (11739890_at) / Fold change /veh PRSS12 (11739890_at) / RFU BIN1 (11741810_x_at) / Fold change /veh BIN1 (11741810_x_at) / RFU WNT11 (11732464_a_at) / Fold change /veh WNT11 (11732464_a_at) / RFU C10orf10 (11716521_a_at) / Fold change /veh C10orf10 (11716521_a_at) / RFU C5orf56 (11738089_at) / Fold change /veh C5orf56 (11738089_at) / RFU CYB561 (11721691_x_at) / Fold change /veh CYB561 (11721691_x_at) / RFU ANKRD19P (11752326_a_at) / Fold change /veh ANKRD19P (11752326_a_at) / RFU OR2T12 /// OR2T33 /// OR2T8 (11738714_s_at) / Fold change /veh OR2T12 /// OR2T33 /// OR2T8 (11738714_s_at) / RFU VCAN (11748164_a_at) / Fold change /veh VCAN (11748164_a_at) / RFU JSRP1 (11732532_at) / Fold change /veh JSRP1 (11732532_at) / RFU KRTAP10-11 (11738290_x_at) / Fold change /veh KRTAP10-11 (11738290_x_at) / RFU MYO3A (11730013_a_at) / Fold change /veh MYO3A (11730013_a_at) / RFU EBF3 (11725865_a_at) / Fold change /veh EBF3 (11725865_a_at) / RFU CAMK2N1 (11719241_x_at) / Fold change /veh CAMK2N1 (11719241_x_at) / RFU C5orf56 (11738088_a_at) / Fold change /veh C5orf56 (11738088_a_at) / RFU OLFML3 (11715873_a_at) / Fold change /veh OLFML3 (11715873_a_at) / RFU LOC100653217 /// NTM (11731650_a_at) / Fold change /veh LOC100653217 /// NTM (11731650_a_at) / RFU MAPK11 (11762145_a_at) / Fold change /veh MAPK11 (11762145_a_at) / RFU FIZ1 (11724087_x_at) / Fold change /veh FIZ1 (11724087_x_at) / RFU OASL (11726364_x_at) / Fold change /veh OASL (11726364_x_at) / RFU SOX15 (11748057_x_at) / Fold change /veh SOX15 (11748057_x_at) / RFU CD79A (11719716_a_at) / Fold change /veh CD79A (11719716_a_at) / RFU HIST1H1D (11736915_at) / Fold change /veh HIST1H1D (11736915_at) / RFU CASKIN2 (11723855_a_at) / Fold change /veh CASKIN2 (11723855_a_at) / RFU LOC730098 (11760151_x_at) / Fold change /veh LOC730098 (11760151_x_at) / RFU OR4N2 (11742367_at) / Fold change /veh OR4N2 (11742367_at) / RFU PRRT2 (11749266_a_at) / Fold change /veh PRRT2 (11749266_a_at) / RFU SNX32 (11753110_a_at) / Fold change /veh SNX32 (11753110_a_at) / RFU CDHR5 (11726645_a_at) / Fold change /veh CDHR5 (11726645_a_at) / RFU RCAN1 (11760418_a_at) / Fold change /veh RCAN1 (11760418_a_at) / RFU FAM167A (11723789_a_at) / Fold change /veh FAM167A (11723789_a_at) / RFU FAM26E (11764081_at) / Fold change /veh FAM26E (11764081_at) / RFU ISYNA1 (11749810_s_at) / Fold change /veh ISYNA1 (11749810_s_at) / RFU ACY1 (11761880_at) / Fold change /veh ACY1 (11761880_at) / RFU 11764098_at / Fold change /veh 11764098_at / RFU SAMD14 (11745864_x_at) / Fold change /veh SAMD14 (11745864_x_at) / RFU NPB (11741838_a_at) / Fold change /veh NPB (11741838_a_at) / RFU TMPRSS6 (11731388_a_at) / Fold change /veh TMPRSS6 (11731388_a_at) / RFU KRTAP10-2 (11738614_at) / Fold change /veh KRTAP10-2 (11738614_at) / RFU ARHGAP8 /// PRR5-ARHGAP8 (11727945_x_at) / Fold change /veh ARHGAP8 /// PRR5-ARHGAP8 (11727945_x_at) / RFU KRTAP5-7 /// NADSYN1 (11734609_at) / Fold change /veh KRTAP5-7 /// NADSYN1 (11734609_at) / RFU RASL12 (11751679_a_at) / Fold change /veh RASL12 (11751679_a_at) / RFU CDKN2B (11736163_a_at) / Fold change /veh CDKN2B (11736163_a_at) / RFU PRF1 (11729649_at) / Fold change /veh PRF1 (11729649_at) / RFU, ZNF638 /// ZNF638-IT1 / Fold change vs veh, ZNF638 /// ZNF638-IT1 / RFU, PANK3 / Fold change vs veh, PANK3 / RFU, SH3YL1 / Fold change vs veh, SH3YL1 / RFU, ZEB2 / Fold change vs veh, ZEB2 / RFU, NRIP1 / Fold change vs veh, NRIP1 / RFU, PTTG1IP / Fold change vs veh, PTTG1IP / RFU, CAPN2 / Fold change vs veh, CAPN2 / RFU, MED14 / Fold change vs veh, MED14 / RFU, SNORA58 / Fold change vs veh, SNORA58 / RFU, C1orf63 / Fold change vs veh, C1orf63 / RFU, LRRFIP1 / Fold change vs veh, LRRFIP1 / RFU, NDUFAF7 / Fold change vs veh, NDUFAF7 / RFU, SLC12A2 / Fold change vs veh, SLC12A2 / RFU, IBTK / Fold change vs veh, IBTK / RFU, ESF1 / Fold change vs veh, ESF1 / Fold change vs veh, TMEM50B / RFU, TAOK1 / Fold change vs veh, TAOK1 / RFU, ACBD3 / Fold change vs veh, ACBD3 / RFU, TMA16 / Fold change vs veh, TMA16 / RFU, RWDD3 / Fold change vs veh, RWDD3 / RFU, BCAT1 / Fold change vs veh, BCAT1 / RFU, EDEM3 / Fold change vs veh, EDEM3 / RFU, TMEM33 / Fold change vs veh, TMEM33 / RFU, WDR75 / Fold change vs veh, WDR75 / RFU, AHCTF1 / Fold change vs veh, AHCTF1 / RFU, TFRC / Fold change vs veh, TFRC / RFU, ZDHHC17 / Fold change vs veh, ZDHHC17 / RFU, NOM1 / Fold change vs veh, NOM1 / RFU, ARL8B / Fold change vs veh, ARL8B / RFU, ZBTB11 / Fold change vs veh, ZBTB11 / RFU, TAMM41 / Fold change vs veh, TAMM41 / RFU, KIAA1704 /// LOC100996395 / Fold change vs veh, KIAA1704 /// LOC100996395 / RFU, ING1 / Fold change vs veh, ING1 / RFU, TRMT61B / Fold change vs veh, TRMT61B / RFU, FUBP3 / Fold change vs veh, FUBP3 / RFU, TP53 / Fold change vs veh, TP53 / RFU, TNKS2 / Fold change vs veh, TNKS2 / RFU, ZFP14 / Fold change vs veh, ZFP14 / RFU, ACTR2 / Fold change vs veh, ACTR2 / RFU, PPP3R1 / Fold change vs veh, PPP3R1 / RFU, PIK3R1 / Fold change vs veh, PIK3R1 / RFU, HNRNPA1 / Fold change vs veh, HNRNPA1 / RFU, RNF170 / Fold change vs veh, RNF170 / RFU, ZNF28 / Fold change vs veh, ZNF28 / RFU, RNGTT / Fold change vs veh, RNGTT / RFU, OGT / Fold change vs veh, OGT / RFU, BRD1 / Fold change vs veh, BRD1 / RFU, MARS / Fold change vs veh, MARS / RFU, ZNF655 / Fold change vs veh, ZNF655 / RFU, FAHD1 / Fold change vs veh, FAHD1 / RFU, BDP1 / Fold change vs veh, BDP1 / RFU, LRRCC1 / Fold change vs veh, LRRCC1 / RFU, ARID1A / Fold change vs veh, ARID1A / RFU, ZNF146 / Fold change vs veh, ZNF146 / RFU, ZNF330 / Fold change vs veh, ZNF330 / RFU, GPN3 / Fold change vs veh, GPN3 / RFU, C9orf123 / Fold change vs veh, C9orf123 / RFU, N4BP2L2 / Fold change vs veh, N4BP2L2 / RFU, ARFIP1 / Fold change vs veh, ARFIP1 / RFU, FAM179B / Fold change vs veh, FAM179B / RFU, BCL10 / Fold change vs veh, BCL10 / RFU, UHRF1BP1L / Fold change vs veh, UHRF1BP1L / RFU, BET1 / Fold change vs veh, BET1 / RFU, CNOT2 / Fold change vs veh, CNOT2 / RFU, ZNF268 / Fold change vs veh, ZNF268 / Fold change vs veh, ZNF507 / RFU, DGCR2 / Fold change vs veh, DGCR2 / RFU, WDSUB1 / Fold change vs veh, WDSUB1 / Fold change vs veh, HSP90B1 /// MIR3652 / RFU, ADSS / Fold change vs veh, ADSS / RFU, GK / Fold change vs veh, GK / RFU, ZNF148 / Fold change vs veh, ZNF148 / RFU, TAF9 / Fold change vs veh, TAF9 / RFU, SLC1A5 / Fold change vs veh, SLC1A5 / RFU, SLMO2 / Fold change vs veh, SLMO2 / RFU, ABCC4 / Fold change vs veh, ABCC4 / RFU, LOC101060439 /// RAP1B / Fold change vs veh, LOC101060439 /// RAP1B / RFU, RFX7 / Fold change vs veh, RFX7 / RFU, GTPBP10 / Fold change vs veh, GTPBP10 / RFU, CNEP1R1 / Fold change vs veh, CNEP1R1 / RFU, BIVM-ERCC5 /// ERCC5 / Fold change vs veh, BIVM-ERCC5 /// ERCC5 / RFU, ILF3 / Fold change vs veh, ILF3 / RFU 11762660_at / Fold change /veh 11762660_at / RFU VCAN (11757783_s_at) / Fold change /veh VCAN (11757783_s_at) / RFU DDX43 (11728927_at) / Fold change /veh DDX43 (11728927_at) / RFU KRT8 (11758188_x_at) / Fold change /veh KRT8 (11758188_x_at) / RFU NKD1 (11759106_at) / Fold change /veh NKD1 (11759106_at) / RFU SRD5A1 (11742802_a_at) / Fold change /veh SRD5A1 (11742802_a_at) / RFU TPSAB1 /// TPSB2 (11721975_s_at) / Fold change /veh TPSAB1 /// TPSB2 (11721975_s_at) / RFU GSTM3 (11746129_a_at) / Fold change /veh GSTM3 (11746129_a_at) / RFU IL23R (11737362_x_at) / Fold change /veh IL23R (11737362_x_at) / RFU TMEM51 (11727254_a_at) / Fold change /veh TMEM51 (11727254_a_at) / RFU PIWIL2 (11732686_x_at) / Fold change /veh PIWIL2 (11732686_x_at) / RFU ORM1 (11744905_x_at) / Fold change /veh ORM1 (11744905_x_at) / RFU CCDC152 (11743942_at) / Fold change /veh CCDC152 (11743942_at) / RFU ECM1 (11717891_a_at) / Fold change /veh ECM1 (11717891_a_at) / RFU IL23R (11748794_a_at) / Fold change /veh IL23R (11748794_a_at) / RFU TNFAIP8L3 (11732012_x_at) / Fold change /veh TNFAIP8L3 (11732012_x_at) / RFU MBOAT4 (11741988_at) / Fold change /veh MBOAT4 (11741988_at) / RFU 11764193_at / Fold change /veh 11764193_at / RFU TMEM53 (11763286_at) / Fold change /veh TMEM53 (11763286_at) / RFU MAGEB2 (11727129_at) / Fold change /veh MAGEB2 (11727129_at) / RFU TMEM200A (11744735_a_at) / Fold change /veh TMEM200A (11744735_a_at) / RFU CCDC152 (11751479_a_at) / Fold change /veh CCDC152 (11751479_a_at) / RFU FAM211A (11726209_a_at) / Fold change /veh FAM211A (11726209_a_at) / RFU RGS16 (11746705_a_at) / Fold change /veh RGS16 (11746705_a_at) / RFU VCAN (11755009_s_at) / Fold change /veh VCAN (11755009_s_at) / RFU RHOB (11743442_s_at) / Fold change /veh RHOB (11743442_s_at) / RFU RGS16 (11720943_a_at) / Fold change /veh RGS16 (11720943_a_at) / RFU RGS16 (11720944_at) / Fold change /veh RGS16 (11720944_at) / RFU, VPS4B / Fold change vs veh, VPS4B / RFU, CREB1 / Fold change vs veh, CREB1 / RFU, DNAJC13 / Fold change vs veh, DNAJC13 / RFU, GNAQ / Fold change vs veh, GNAQ / RFU, CDK5R1 / Fold change vs veh, CDK5R1 / RFU, ZRANB3 / Fold change vs veh, ZRANB3 / RFU, CUL4A / Fold change vs veh, CUL4A / RFU, CCNY / Fold change vs veh, CCNY / RFU, UFL1 / Fold change vs veh, UFL1 / RFU, COG3 / Fold change vs veh, COG3 / RFU, DIAPH2 / Fold change vs veh, DIAPH2 / RFU, SKA2 / Fold change vs veh, SKA2 / RFU, AFF3 / Fold change vs veh, AFF3 / RFU, LMF1 / Fold change vs veh, LMF1 / RFU, IPO11 / Fold change vs veh, IPO11 / RFU, DFFB / Fold change vs veh, DFFB / RFU, FOXP1 / Fold change vs veh, FOXP1 / RFU, CARD8 / Fold change vs veh, CARD8 / RFU, STRN3 / Fold change vs veh, STRN3 / RFU, ADK / Fold change vs veh, ADK / RFU, RASSF2 / Fold change vs veh, RASSF2 / RFU, WIPF1 / Fold change vs veh, WIPF1 / RFU, LARP1B / Fold change vs veh, LARP1B / RFU, RASA1 / Fold change vs veh, RASA1 / RFU, RB1 / Fold change vs veh, RB1 / RFU, PPFIA1 / Fold change vs veh, PPFIA1 / RFU, MAT2A / Fold change vs veh, MAT2A / RFU, CCT5 / Fold change vs veh, CCT5 / RFU, WDR92 / Fold change vs veh, WDR92 / RFU, CUX1 / Fold change vs veh, CUX1 / RFU, TTC7A / Fold change vs veh, TTC7A / RFU, TMEM135 / Fold change vs veh, TMEM135 / RFU, DEPTOR / Fold change vs veh, DEPTOR / RFU, CPM / Fold change vs veh, CPM / RFU, DNAJB6 / Fold change vs veh, DNAJB6 / RFU, CACNA2D3 / Fold change vs veh, CACNA2D3 / RFU, DTX4 / Fold change vs veh, DTX4 / RFU, TFCP2 / Fold change vs veh, TFCP2 / RFU, GMCL1 /// GMCL1P1 / Fold change vs veh, GMCL1 /// GMCL1P1 / RFU, AEBP2 / Fold change vs veh, AEBP2 / RFU, SNHG1 /// SNORD22 /// SNORD25 /// SNORD26 /// SNORD27 /// SNORD28 /// SNORD29 /// SNORD31 / Fold change vs veh, SNHG1 /// SNORD22 /// SNORD25 /// SNORD26 /// SNORD27 /// SNORD28 /// SNORD29 /// SNORD31 / Fold change (Aza/veh), C12orf56 (ProbeSet 11735607_a_at) / Fold change (ACY-1035/veh), C12orf56 (ProbeSet 11735607_a_at) / Fold change (Aza/veh), FGFR1OP (ProbeSet 11751329_s_at) / Fold change (ACY-1035/veh), FGFR1OP (ProbeSet 11751329_s_at) / Fold change (Aza/veh), VPS36 (ProbeSet 11739960_a_at) / Fold change (ACY-1035/veh), VPS36 (ProbeSet 11739960_a_at) / RFU SYPL1 (11715823_x_at) / Fold change /veh SYPL1 (11715823_x_at) / RFU IGFBP7 (11715501_s_at) / Fold change /veh IGFBP7 (11715501_s_at) / RFU REEP3 (11722064_at) / Fold change /veh REEP3 (11722064_at) / RFU IGLL1 (11728026_x_at) / Fold change /veh IGLL1 (11728026_x_at): dose or concentration left out as unconfirmed
Details: ProbeSet 11732154_at; LIST B

SMILES: Nc1ncn([C@@H]2O[C@H](CO)[C@@H](O)[C@H]2O)c(=O)n1 [azacitidine]
- Fold change vs veh, OGT: 0.90
